# ChEMBL document CHEMBL1909046, “DrugMatrix in vitro pharmacology data”
# Columns and labels:
# Thromboxane-A synthase = target: T1, Thromboxane-A synthase (Homo sapiens, UniProt P24557); test: biochemical; type: tissue-based, Platelet;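 note: enzyme inhibition assay with PGH2 supplied as substrate; in other assays of this panel Not Active means under 50% inhibition at 10 µM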
# T1 sequence (P24557 whole entry): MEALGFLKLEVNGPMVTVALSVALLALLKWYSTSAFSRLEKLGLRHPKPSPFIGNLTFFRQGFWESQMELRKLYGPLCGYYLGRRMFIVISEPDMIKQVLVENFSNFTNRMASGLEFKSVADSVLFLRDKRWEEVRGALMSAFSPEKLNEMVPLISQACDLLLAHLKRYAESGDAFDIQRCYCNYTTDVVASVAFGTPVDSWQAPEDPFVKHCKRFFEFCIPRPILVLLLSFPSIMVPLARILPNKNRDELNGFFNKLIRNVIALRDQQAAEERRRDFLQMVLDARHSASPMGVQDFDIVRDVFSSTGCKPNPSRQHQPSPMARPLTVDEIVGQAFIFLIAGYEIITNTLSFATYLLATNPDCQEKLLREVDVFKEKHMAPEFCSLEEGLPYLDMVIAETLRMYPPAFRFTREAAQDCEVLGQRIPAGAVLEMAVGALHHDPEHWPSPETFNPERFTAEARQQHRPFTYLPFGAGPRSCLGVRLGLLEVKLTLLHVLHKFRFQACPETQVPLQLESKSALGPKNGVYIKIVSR
# D(4) dopamine receptor = target: T2, D(4) dopamine receptor (Homo sapiens, UniProt P21917); test: DRUGMATRIX: Dopamine D4.2 radioligand binding (ligand: [3H] Spiperone); type: cell membranes, CHO-K1, Membrane; details: cho-k1; Not Active = under 50% inhibition at 10 µM
# T2 sequence (P21917 whole entry): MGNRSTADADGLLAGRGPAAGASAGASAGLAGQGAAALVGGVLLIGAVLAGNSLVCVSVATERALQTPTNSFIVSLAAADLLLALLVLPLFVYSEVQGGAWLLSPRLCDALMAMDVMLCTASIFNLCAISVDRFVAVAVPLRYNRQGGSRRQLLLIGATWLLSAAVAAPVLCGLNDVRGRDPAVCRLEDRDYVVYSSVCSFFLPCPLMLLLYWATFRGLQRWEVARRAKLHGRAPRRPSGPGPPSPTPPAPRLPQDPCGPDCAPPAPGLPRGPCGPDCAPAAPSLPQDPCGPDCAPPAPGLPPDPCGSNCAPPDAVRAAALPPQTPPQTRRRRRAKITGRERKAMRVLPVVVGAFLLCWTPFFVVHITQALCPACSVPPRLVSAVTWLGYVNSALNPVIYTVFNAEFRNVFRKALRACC
# [1] = target: C-C chemokine receptor type 5 (Homo sapiens, UniProt P51681); type: cell membranes, Membrane; details: hek293; note: in other assays of this panel Not Active means under 50% inhibition at 10 µM
# Chain of C-C chemokine receptor type 5 (P51681 whole entry): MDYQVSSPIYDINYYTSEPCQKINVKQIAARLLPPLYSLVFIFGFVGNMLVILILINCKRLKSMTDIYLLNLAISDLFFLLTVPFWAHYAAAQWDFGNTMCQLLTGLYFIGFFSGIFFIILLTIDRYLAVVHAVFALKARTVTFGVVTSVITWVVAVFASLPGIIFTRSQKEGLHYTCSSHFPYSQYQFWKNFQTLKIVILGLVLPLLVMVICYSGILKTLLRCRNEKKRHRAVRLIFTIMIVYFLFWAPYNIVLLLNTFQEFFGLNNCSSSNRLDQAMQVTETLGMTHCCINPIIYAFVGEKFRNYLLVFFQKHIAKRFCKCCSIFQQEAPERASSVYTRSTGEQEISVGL
# Carbonic anhydrase 2 = Carbonic anhydrase 2 (Homo sapiens, UniProt P00918); test: DRUGMATRIX: Carbonic Anhydrase II enzyme inhibition (substrate: 4-Nitrophenyl acetate (4-NPA)); type: tissue-based, Erythrocyte; details: erythrocyte; Not Active = under 50% inhibition at 10 µM
# [2] = target: Beta-1 adrenergic receptor (Homo sapiens, UniProt P08588); test: DRUGMATRIX: Adrenergic beta1 radioligand binding (ligand: [125I] Cyanopindolol); type: cell membranes, CHO-K1, Membrane; details: cho-k1; Not Active = under 50% inhibition at 10 µM
# Chain of Beta-1 adrenergic receptor (P08588 whole entry): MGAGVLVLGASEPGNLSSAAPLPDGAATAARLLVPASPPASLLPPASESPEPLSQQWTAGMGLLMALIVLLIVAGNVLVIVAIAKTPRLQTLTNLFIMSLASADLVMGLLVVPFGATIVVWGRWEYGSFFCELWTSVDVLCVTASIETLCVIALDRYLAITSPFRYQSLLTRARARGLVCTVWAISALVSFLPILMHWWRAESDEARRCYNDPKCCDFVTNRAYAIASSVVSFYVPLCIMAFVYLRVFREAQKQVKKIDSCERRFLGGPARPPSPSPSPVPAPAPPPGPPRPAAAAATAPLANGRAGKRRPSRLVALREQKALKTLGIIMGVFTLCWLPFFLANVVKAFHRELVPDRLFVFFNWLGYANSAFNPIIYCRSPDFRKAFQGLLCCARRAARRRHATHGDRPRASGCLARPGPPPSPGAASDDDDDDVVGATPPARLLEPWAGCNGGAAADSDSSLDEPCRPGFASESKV
# Insulin receptor = Insulin receptor (Rattus norvegicus, UniProt P15127); type: cell membranes, Wistar, Liver, Membrane; note: in other assays of this panel Not Active means under 50% inhibition at 10 µM
# Chain of Insulin receptor (P15127 27-759 limits assumed): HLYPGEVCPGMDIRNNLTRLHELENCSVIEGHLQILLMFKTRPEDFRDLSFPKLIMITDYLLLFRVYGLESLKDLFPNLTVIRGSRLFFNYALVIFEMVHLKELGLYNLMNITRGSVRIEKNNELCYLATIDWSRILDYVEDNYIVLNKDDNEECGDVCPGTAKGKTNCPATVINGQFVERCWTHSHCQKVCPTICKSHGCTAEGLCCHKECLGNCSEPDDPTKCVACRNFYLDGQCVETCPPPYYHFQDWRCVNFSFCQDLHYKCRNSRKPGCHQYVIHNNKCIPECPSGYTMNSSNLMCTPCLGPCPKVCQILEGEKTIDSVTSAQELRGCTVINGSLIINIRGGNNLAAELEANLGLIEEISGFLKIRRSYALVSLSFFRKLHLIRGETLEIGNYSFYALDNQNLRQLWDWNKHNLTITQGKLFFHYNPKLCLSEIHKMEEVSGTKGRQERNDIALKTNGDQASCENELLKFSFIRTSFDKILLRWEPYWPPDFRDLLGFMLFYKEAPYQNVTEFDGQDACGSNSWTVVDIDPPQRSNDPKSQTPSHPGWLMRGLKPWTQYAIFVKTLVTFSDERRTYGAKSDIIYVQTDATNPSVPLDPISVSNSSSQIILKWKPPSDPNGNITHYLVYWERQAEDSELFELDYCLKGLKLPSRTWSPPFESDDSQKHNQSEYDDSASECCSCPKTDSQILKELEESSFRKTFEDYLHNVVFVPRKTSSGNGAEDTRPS
# Chain of Insulin receptor (P15127 764-1383 limits assumed): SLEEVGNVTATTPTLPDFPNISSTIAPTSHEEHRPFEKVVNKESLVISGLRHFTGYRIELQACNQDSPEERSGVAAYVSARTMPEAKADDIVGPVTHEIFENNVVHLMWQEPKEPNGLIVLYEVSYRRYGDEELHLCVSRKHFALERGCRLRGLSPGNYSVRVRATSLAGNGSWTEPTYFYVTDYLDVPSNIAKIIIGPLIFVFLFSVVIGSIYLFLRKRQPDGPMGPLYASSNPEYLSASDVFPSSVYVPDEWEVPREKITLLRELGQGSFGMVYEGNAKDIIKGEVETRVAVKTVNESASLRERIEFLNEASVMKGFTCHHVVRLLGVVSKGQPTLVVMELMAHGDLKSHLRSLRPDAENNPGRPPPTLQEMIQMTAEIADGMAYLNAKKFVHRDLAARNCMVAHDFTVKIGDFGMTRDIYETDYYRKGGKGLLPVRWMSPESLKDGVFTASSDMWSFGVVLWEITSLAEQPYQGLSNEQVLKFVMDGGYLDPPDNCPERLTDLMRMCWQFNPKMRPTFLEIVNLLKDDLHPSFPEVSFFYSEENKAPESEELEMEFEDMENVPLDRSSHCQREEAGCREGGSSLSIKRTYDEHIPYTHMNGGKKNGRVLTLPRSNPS
# Adenosine receptor A3 = target: T3, Adenosine receptor A3 (Homo sapiens, UniProt P0DMS8); type: cell membranes, CHO-K1, Membrane;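 note: radioligand binding assay with AB-MECA serving as the labeled ligand; in other assays of this panel Not Active means under 50% inhibition at 10 µM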
# T3 sequence (P0DMS8 whole entry): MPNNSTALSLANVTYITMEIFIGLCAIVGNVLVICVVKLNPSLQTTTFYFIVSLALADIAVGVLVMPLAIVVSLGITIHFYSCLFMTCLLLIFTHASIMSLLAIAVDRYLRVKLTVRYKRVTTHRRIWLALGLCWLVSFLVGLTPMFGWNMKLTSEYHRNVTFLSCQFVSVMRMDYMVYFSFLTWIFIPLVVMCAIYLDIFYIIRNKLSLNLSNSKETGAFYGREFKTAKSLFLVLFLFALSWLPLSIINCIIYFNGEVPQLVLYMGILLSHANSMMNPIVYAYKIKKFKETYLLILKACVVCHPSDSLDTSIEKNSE
Compound,IC50 (Thromboxane-A synthase; read-out: IC50),IC50 (D(4) dopamine receptor),IC50 [1],IC50 (Carbonic anhydrase 2),IC50 [2],IC50 (Insulin receptor),IC50 (Adenosine receptor A3; cho-k1),IC50 (Thromboxane-A synthase; platelet),IC50 (Adenosine receptor A3; read-out: IC50),Ki (Adenosine receptor A3; read-out: Ki),Ki (Thromboxane-A synthase; platelet),Ki (D(4) dopamine receptor),Ki [1],Ki (Carbonic anhydrase 2),Ki [2],Ki (Insulin receptor),Ki (Adenosine receptor A3; cho-k1)
CC(C)CN(C[C@@H](O)[C@H](Cc1ccccc1)NC(=O)O[C@H]1CCOC1)S(=O)(=O)c1ccc(N)cc1,6.73 µM,Not Active,Not Active,Not Active,Not Active,Not Active,Not Active,,,,,,,,,,
c1ccc(Nc2ccc(Nc3ccccc3)cc2)cc1,,Not Active,Not Active,Not Active,Not Active,Not Active,Not Active,Not Active,,,,,,,,,
COc1cc2c3cc1Oc1cc(ccc1O)C[C@@H]1c4c(cc(OC)c(O)c4Oc4ccc(cc4)C[C@@H]3N(C)CC2)CC[N+]1(C)C.[Cl-],,Not Active,Not Active,Not Active,Not Active,Not Active,Not Active,Not Active,,,,,,,,,
NC(=O)N1c2ccccc2CCc2ccccc21,,Not Active,Not Active,Not Active,Not Active,Not Active,Not Active,Not Active,,,,,,,,,
O=C1CC[C@@H](N2C(=O)c3ccccc3C2=O)C(=O)N1,,Not Active,Not Active,Not Active,Not Active,Not Active,Not Active,Not Active,,,,,,,,,
"Cc1onc(O)c1CC(N)C(=O)O (racemic) [(R,S)-AMPA]",,Not Active,Not Active,Not Active,Not Active,Not Active,Not Active,Not Active,,,,,,,,,
Cc1ccc2cc3c(ccc4ccccc43)c3c2c1CC3 [3-METHYLCHOLANTHRENE],,Not Active,Not Active,Not Active,Not Active,Not Active,,Not Active,5.54 µM,3.13 µM,,,,,,,
CC[C@@]1(O)C[C@H](O[C@H]2C[C@H](N(C)C)[C@H](O[C@H]3C[C@H](O)[C@H](O[C@H]4CCC(=O)[C@H](C)O4)[C@H](C)O3)[C@H](C)O2)c2c(cc3c(c2O)C(=O)c2c(O)cccc2C3=O)[C@H]1C(=O)OC [ACLARUBICIN],,Not Active,Not Active,Not Active,Not Active,Not Active,Not Active,Not Active,,,,,,,,,
Nc1nc2c(ncn2COCCO)c(=O)[nH]1 [ACYCLOVIR],,Not Active,Not Active,Not Active,Not Active,Not Active,Not Active,Not Active,,,,,,,,,
Cc1c(C)c2c(c(C)c1O)CC[C@@](C)(CCC[C@H](C)CCC[C@H](C)CCCC(C)C)O2 [ALPHA-TOCOPHEROL],,Not Active,Not Active,Not Active,Not Active,Not Active,Not Active,Not Active,,,,,,,,,
CN(C)c1nc(N(C)C)nc(N(C)C)n1 [ALTRETAMINE],,Not Active,Not Active,Not Active,Not Active,Not Active,Not Active,Not Active,,,,,,,,,
Nc1c(Br)cc(Br)cc1CN[C@H]1CC[C@H](O)CC1 [AMBROXOL],,Not Active,Not Active,Not Active,Not Active,Not Active,Not Active,Not Active,,,,,,,,,
NCCCCCC(=O)O [AMINOCAPROIC ACID],,Not Active,Not Active,Not Active,Not Active,Not Active,Not Active,Not Active,,,,,,,,,
CCC1(c2ccc(N)cc2)CCC(=O)NC1=O (stereo not given) [AMINOGLUTETHIMIDE],,Not Active,Not Active,Not Active,Not Active,Not Active,Not Active,Not Active,,,,,,,,,
Cc1ccc(/N=C/N(C)/C=N/c2ccc(C)cc2C)c(C)c1 [AMITRAZ],,Not Active,Not Active,Not Active,Not Active,Not Active,Not Active,Not Active,,,,,,,,,
CCOC(=O)C1=C(COCCN)NC(C)=C(C(=O)OC)C1c1ccccc1Cl (stereo not given) [AMLODIPINE],,Not Active,Not Active,Not Active,Not Active,Not Active,Not Active,Not Active,,,,,,,,,
COc1ccc(C[C@H]2NC[C@H](O)[C@H]2OC(C)=O)cc1 [ANISOMYCIN],,Not Active,Not Active,Not Active,Not Active,Not Active,Not Active,Not Active,,,Not Active,Not Active,Not Active,Not Active,Not Active,Not Active,Not Active
Nc1ncn([C@@H]2O[C@H](CO)[C@@H](O)[C@H]2O)c(=O)n1 [AZACITIDINE],,Not Active,Not Active,Not Active,Not Active,Not Active,Not Active,Not Active,,,,,,,,,
CN(C)C(=O)Oc1cc(OC(=O)N(C)C)cc(C(O)CNC(C)(C)C)c1 (stereo not given) [BAMBUTEROL],,Not Active,Not Active,Not Active,Not Active,Not Active,Not Active,Not Active,,,,,,,,,
c1ccc2c(c1)c1cccc3ccc4cccc2c4c31 [BENZO[E]PYRENE],,Not Active,Not Active,Not Active,Not Active,Not Active,Not Active,Not Active,,,,,,,,,
CNCCc1ccccn1 [BETAHISTINE],,Not Active,Not Active,Not Active,,Not Active,Not Active,Not Active,,,,,,,,,
CC(C)C(Br)C(=O)NC(N)=O (stereo not given) [BROMISOVALUM],,Not Active,Not Active,Not Active,Not Active,Not Active,Not Active,Not Active,,,,,,,,,
CCCC1O[C@@H]2C[C@H]3[C@@H]4CCC5=CC(=O)C=C[C@]5(C)[C@H]4[C@@H](O)C[C@]3(C)[C@]2(C(=O)CO)O1 (stereo not given in full) [BUDESONIDE],,Not Active,Not Active,Not Active,Not Active,Not Active,Not Active,Not Active,,,,,,,,,
Cc1ccc(-c2cc(C(F)(F)F)nn2-c2ccc(S(N)(=O)=O)cc2)cc1 [CELECOXIB],,Not Active,Not Active,,Not Active,Not Active,,Not Active,24.6 µM,13.9 µM,,,,,,,
CN(C)CCCN1c2ccccc2Sc2ccc(Cl)cc21 [CHLORPROMAZINE],,,Not Active,Not Active,Not Active,Not Active,Not Active,Not Active,,,,,,,,,
CNCCCN1c2ccccc2CCc2ccccc21 [DESIPRAMINE],,Not Active,Not Active,Not Active,,Not Active,Not Active,Not Active,,,,,,,,,
COc1cc2nc(N3CCN(C(=O)C4COc5ccccc5O4)CC3)nc(N)c2cc1OC (stereo not given) [DOXAZOSIN],,Not Active,Not Active,Not Active,,Not Active,Not Active,Not Active,,,,,,,,,
Nc1nc(N)nc(-c2cc(Cl)ccc2Cl)n1.O=C(O)/C=C\C(=O)O [IRSOGLADINE MALEATE],,Not Active,Not Active,Not Active,,Not Active,Not Active,Not Active,,,,,,,,,
COCCc1ccc(OCC(O)CNC(C)C)cc1 (stereo not given) [METOPROLOL],,Not Active,Not Active,Not Active,,Not Active,Not Active,Not Active,,,,,,,,,
